Each block holds one molecule with its values, some of them ahead of it.
Legend:
Conditions in all cases: 72 h
[1] = test system: CAL-51
Method in brief: (§1)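 The plates used were 384-well plates holding compound at 5 concentrations in 10-fold steps across a compound-specific 10,000-fold range, into which breast cancer cell lines were seeded in 20 µl suspension. Following 72 h incubation, CellTox Green fluorescence was read at 485/520 nm, and CellTiter-Glo luminescence was read after 10 min at room temperature. Normalisation on each plate used 0.1 % DMSO and a positive kill control. Dose-response curves gave the EC50, which was censored at the top concentration.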

[2] = test system: HCC1599
Method in brief: as §1

[3] = test system: BT-549
Method in brief: as §1

[4] = test system: MDA-MB-453
Method in brief: as §1

[5] = test system: BT-474
Method in brief: as §1

[6] = test system: HCC1937
Method in brief: as §1

[7] = test system: Hs578T
Method in brief: as §1

[8] = test system: MFM-223
Method in brief: as §1

[9] = test system: CAL-85-1
Method in brief: as §1

[10] = test system: CAL-148
Method in brief: as §1

[11] = test system: MDA-MB-231
Method in brief: as §1

[12] = test system: DU-4475
Method in brief: as §1

[13] = test system: CAL-120
Method in brief: as §1

[14] = test system: MDA-MB-436
Method in brief: as §1

[15] = test system: MDA-MB-468
Method in brief: as §1

[16] = test system: MCF-10A
Method in brief: as §1

[17] = test system: HCC1143
Method in brief: as §1

[18] = test system: SK-BR-3
Method in brief: as §1

[19] = test system: HDQ-P1
Method in brief: as §1

[20] = test system: CAL-51; remark: listed apart in the source
Method in brief: (§2)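 Breast cancer cell lines in 20 µl suspension were seeded onto 384-well plates that already held compound dissolved in 5 µl medium and were incubated for 72 h. Viability was measured by adding 2.5 µl CellTiter-Blue for 2 h at 37 °C and reading fluorescence at 560/590 nm. Each plate was normalised to vehicle and a positive kill control and checked by Z'-factor. EC50 was taken from a fitted percent-inhibition dose-response curve, censored at the highest concentration, and rows with a drug sensitivity score of zero were removed.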

[21] = test system: MDA-MB-453; remark: listed apart in the source
Method in brief: as §2

[22] = test system: CAL-85-1; remark: listed apart in the source
Method in brief: as §2

[23] = test system: CAL-148; remark: listed apart in the source
Method in brief: as §2

[24] = test system: DU-4475; remark: listed apart in the source
Method in brief: as §2

[25] = test system: HDQ-P1; remark: listed apart in the source
Method in brief: as §2

[26] = test system: HCC1599; remark: listed apart in the source
Method in brief: as §2

[27] = test system: BT-549; remark: listed apart in the source
Method in brief: as §2

[28] = test system: BT-474; remark: listed apart in the source
Method in brief: as §2

[29] = test system: HCC1937; remark: listed apart in the source
Method in brief: as §2

[30] = test system: Hs578T; remark: listed apart in the source
Method in brief: as §2

[31] = test system: MFM-223; remark: listed apart in the source
Method in brief: as §2

[32] = test system: MDA-MB-231; remark: listed apart in the source
Method in brief: as §2

[33] = test system: CAL-120; remark: listed apart in the source
Method in brief: as §2

[34] = test system: MDA-MB-436; remark: listed apart in the source
Method in brief: as §2

[35] = test system: MDA-MB-468; remark: listed apart in the source
Method in brief: as §2

[36] = test system: HCC1143; remark: listed apart in the source
Method in brief: as §2

[37] = test system: SK-BR-3; remark: listed apart in the source
Method in brief: as §2

[38] = test system: CAL-51; remark: listed apart in the source
Method: (§3)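 Drug sensitivity and resistance testing (DSRT) of breast cancer cell lines in 384-well plates, 5 concentrations in 10-fold dilutions over a compound-specific 10,000-fold range. After 72 h, cytotoxicity was read by CellTox Green fluorescence and viability by CellTiter-Glo luminescence (multiplexed), normalised to DMSO and benzethonium chloride controls. EC50 is the inflection point of the fitted dose-response curve (bottom asymptote free, so it can be relative for partial curves) and is censored at the highest tested concentration. Rows with DSS 0 (no meaningful response) were excluded.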

[39] = test system: BT-549; remark: listed apart in the source
Method: as §3

[40] = test system: BT-474; remark: listed apart in the source
Method: as §3

[41] = test system: Hs578T; remark: listed apart in the source
Method: as §3

[42] = test system: MFM-223; remark: listed apart in the source
Method: as §3

[43] = test system: CAL-85-1; remark: listed apart in the source
Method: as §3

[44] = test system: MDA-MB-231; remark: listed apart in the source
Method: as §3

[45] = test system: CAL-120; remark: listed apart in the source
Method: as §3

[46] = test system: MDA-MB-468; remark: listed apart in the source
Method: as §3

[47] = test system: MCF-10A; remark: listed apart in the source
Method: as §3

[48] = test system: HDQ-P1; remark: listed apart in the source
Method: as §3

[49] = test system: MDA-MB-453; remark: listed apart in the source
Method: as §3

[50] = test system: HCC1599; remark: listed apart in the source
Method: as §3

[51] = test system: HCC1937; remark: listed apart in the source
Method: as §3

[52] = test system: MDA-MB-436; remark: listed apart in the source
Method: as §3

EC50, CellTiter-Glo [2]: 586 nM
EC50, CellTiter-Glo [3]: 2110 nM
EC50, CellTiter-Glo [4]: 3020 nM
EC50, CellTiter-Glo [5]: 2600 nM
EC50, CellTiter-Glo [6]: 3340 nM
EC50, CellTiter-Glo [11]: 1630 nM
EC50, CellTiter-Glo [14]: 4370 nM
EC50, CellTiter-Glo [15]: 1120 nM
EC50, CellTiter-Glo [17]: 4710 nM
EC50, CellTiter-Glo [18]: 48.8 nM
EC50, CellTiter-Blue viability [21]: 243 nM
EC50, CellTiter-Blue viability [26]: 9080 nM
EC50, CellTiter-Blue viability [27]: 2480 nM
EC50, CellTiter-Blue viability [28]: 110 nM
EC50, CellTiter-Blue viability [29]: 2250 nM
EC50, CellTiter-Blue viability [32]: 1820 nM
EC50, CellTiter-Blue viability [34]: 811 nM
EC50, CellTiter-Blue viability [35]: 571 nM
EC50, CellTiter-Blue viability [36]: 4170 nM
EC50, CellTiter-Blue viability [37]: 16.6 nM
Structure (SMILES): C=CC(=O)Nc1cc2c(Nc3ccc(F)c(Cl)c3)ncnc2cc1OCCCN1CCOCC1 [Canertinib]
EC50, CellTiter-Glo [1]: 573 nM
EC50, CellTiter-Glo [7]: 5450 nM
EC50, CellTiter-Glo [8]: 5500 nM
EC50, CellTiter-Glo [9]: 595 nM
EC50, CellTiter-Glo [10]: 1390 nM
EC50, CellTiter-Glo [12]: 8210 nM
EC50, CellTiter-Glo [13]: 5390 nM
EC50, CellTiter-Glo [16]: 106 nM
EC50, CellTiter-Glo [19]: 930 nM
EC50, CellTiter-Blue viability [20]: 4690 nM
EC50, CellTiter-Blue viability [22]: 361 nM
EC50, CellTiter-Blue viability [23]: 3370 nM
EC50, CellTiter-Blue viability [24]: 5980 nM
EC50, CellTiter-Blue viability [25]: 448 nM
EC50, CellTiter-Blue viability [30]: 3700 nM
EC50, CellTiter-Blue viability [31]: 3020 nM
EC50, CellTiter-Blue viability [33]: 1720 nM
EC50, CellTox Green [38]: 3010 nM
EC50, CellTox Green [39]: 9070 nM
EC50, CellTox Green [40]: 9800 nM
EC50, CellTox Green [41]: 2850 nM
EC50, CellTox Green [42]: 6740 nM
EC50, CellTox Green [43]: 1620 nM
EC50, CellTox Green [44]: 4920 nM
EC50, CellTox Green [45]: 6660 nM
EC50, CellTox Green [46]: 3210 nM
EC50, CellTox Green [47]: 1690 nM
EC50, CellTox Green [48]: 3470 nM

EC50, CellTiter-Glo [3]: 604 nM
EC50, CellTiter-Glo [5]: > 10000 nM
EC50, CellTiter-Glo [6]: 3500 nM
EC50, CellTiter-Glo [15]: 65.2 nM
EC50, CellTiter-Blue viability [21]: 6490 nM
EC50, CellTiter-Blue viability [26]: > 10000 nM
EC50, CellTiter-Blue viability [27]: 1800 nM
EC50, CellTiter-Blue viability [28]: 1970 nM
EC50, CellTiter-Blue viability [29]: 737 nM
EC50, CellTiter-Blue viability [32]: 96 nM
EC50, CellTiter-Blue viability [34]: 90.1 nM
EC50, CellTiter-Blue viability [35]: 40.4 nM
EC50, CellTiter-Blue viability [37]: 3470 nM
Structure (SMILES): Nc1ncn([C@H]2C[C@H](O)[C@@H](CO)O2)c(=O)n1 [Decitabine]
EC50, CellTiter-Glo [1]: 1160 nM
EC50, CellTiter-Glo [7]: > 10000 nM
EC50, CellTiter-Glo [19]: > 10000 nM
EC50, CellTiter-Blue viability [20]: 2380 nM
EC50, CellTiter-Blue viability [23]: 6600 nM
EC50, CellTiter-Blue viability [24]: 6760 nM
EC50, CellTox Green [38]: 28.9 nM
EC50, CellTox Green [49]: > 10000 nM
EC50, CellTox Green [46]: > 10000 nM

EC50, CellTiter-Glo [4]: 10.5 nM
EC50, CellTiter-Glo [18]: 11.9 nM
Structure (SMILES): C=CC(=O)N1CCC[C@@H](n2nc(-c3ccc(Oc4ccccc4)cc3)c3c(N)ncnc32)C1 [Ibrutinib]
EC50, CellTiter-Glo [1]: 415 nM
EC50, CellTiter-Glo [9]: 493 nM
EC50, CellTiter-Glo [16]: 198 nM
EC50, CellTiter-Glo [19]: 168 nM
EC50, CellTox Green [38]: > 1000 nM
EC50, CellTox Green [49]: 943 nM
EC50, CellTox Green [43]: 416 nM
EC50, CellTox Green [48]: > 1000 nM

EC50, CellTiter-Glo [2]: 61.9 nM
EC50, CellTiter-Glo [3]: 44.7 nM
EC50, CellTiter-Glo [4]: 55.6 nM
EC50, CellTiter-Glo [5]: 70 nM
EC50, CellTiter-Glo [6]: 34.5 nM
EC50, CellTiter-Glo [11]: 75.9 nM
EC50, CellTiter-Glo [14]: 51.4 nM
EC50, CellTiter-Glo [15]: 44.2 nM
EC50, CellTiter-Glo [17]: 28.2 nM
EC50, CellTiter-Glo [18]: 20.1 nM
EC50, CellTiter-Blue viability [21]: 35.1 nM
EC50, CellTiter-Blue viability [26]: 212 nM
EC50, CellTiter-Blue viability [27]: 37.8 nM
EC50, CellTiter-Blue viability [28]: 47.9 nM
EC50, CellTiter-Blue viability [29]: 47.2 nM
EC50, CellTiter-Blue viability [32]: 43.1 nM
EC50, CellTiter-Blue viability [34]: 51.4 nM
EC50, CellTiter-Blue viability [35]: 40.3 nM
EC50, CellTiter-Blue viability [36]: 13.6 nM
EC50, CellTiter-Blue viability [37]: 34.8 nM
Structure (SMILES): O=C(Cc1ccc(-c2ccc(OCCN3CCOCC3)cc2)cn1)NCc1ccccc1 [KX2-391]
EC50, CellTiter-Glo [1]: 16.8 nM
EC50, CellTiter-Glo [7]: 49.6 nM
EC50, CellTiter-Glo [8]: 83.9 nM
EC50, CellTiter-Glo [9]: 23 nM
EC50, CellTiter-Glo [10]: 35.8 nM
EC50, CellTiter-Glo [12]: 34.7 nM
EC50, CellTiter-Glo [13]: 57.1 nM
EC50, CellTiter-Glo [16]: 29.6 nM
EC50, CellTiter-Glo [19]: 26.5 nM
EC50, CellTiter-Blue viability [20]: 63 nM
EC50, CellTiter-Blue viability [22]: 23.1 nM
EC50, CellTiter-Blue viability [23]: 47.1 nM
EC50, CellTiter-Blue viability [24]: 46 nM
EC50, CellTiter-Blue viability [25]: 53.6 nM
EC50, CellTiter-Blue viability [30]: 27.9 nM
EC50, CellTiter-Blue viability [31]: 57.4 nM
EC50, CellTiter-Blue viability [33]: 31.3 nM
EC50, CellTox Green [38]: 23.8 nM
EC50, CellTox Green [50]: 267 nM
EC50, CellTox Green [40]: 307 nM
EC50, CellTox Green [51]: 5000 nM
EC50, CellTox Green [41]: 523 nM
EC50, CellTox Green [42]: 328 nM
EC50, CellTox Green [43]: 22.1 nM
EC50, CellTox Green [52]: > 10000 nM
EC50, CellTox Green [46]: 19.4 nM
EC50, CellTox Green [47]: 59.8 nM
EC50, CellTox Green [48]: 4110 nM
